≈ marks a conversion by molar mass, not a printed value. Read-outs that look alike come from different tables or passages of the source.
Key:
[1] = system: Staphylococcus aureus Smith No. 26; assay: Minimum inhibition concentration by agar plate dilution method; type: cell-based; conditions: read-out: Minimum inhibition concentration
Excerpt: (§1) Minimum inhibition concentration (γ/ml) by means
(§2) of agar plate dilution method

Klebsiella pneumoniae = assay: as above; type: cell-based; conditions: Table 2
Excerpt: as §1, §2

[2] = system: Salmonella enteriditis No. 11; assay: Minimum prohibiting/inhibition concentration by agar plate dilution method; type: cell-based
Excerpt: (§3) Minimum prohibiting concentration (γ/ml)
(§4) by means of agar plate dilution method
as §1, §2

Proteus morganii Kono = assay: as above; type: cell-based; conditions: Morganella morganii
Excerpt: as §3, §4, §1, §2

Salmonella typhi O-901-W = assay: as above; type: cell-based; conditions: Salmonella enterica
Excerpt: as §3, §4, §1, §2

[3] = system: Vibrio parahaemolyticus K-5; assay: as above; type: cell-based
Excerpt: as §3, §4, §1, §2

[4] = system: Staphylococcus aureus Smith S-424; assay: as above; type: cell-based
Excerpt: as §3, §4, §1, §2

Serratia species No. 2 = assay: Minimum prohibiting concentration by agar plate dilution method; type: cell-based
Excerpt: as §3, §4

[5] = system: Bacillus subtilis ATCC 6633; assay: as above; type: cell-based
Excerpt: as §3, §4

[6] = system: Vibrio parahaemolyticus K-7; assay: as above; type: cell-based
Excerpt: as §3, §4

[7] = system: Pseudomonas aeruginosa IAM 1007; assay: as above; type: cell-based
Excerpt: as §3, §4

Escherichia coli C73-1 = assay: as above; type: cell-based
Excerpt: as §3, §4

[8] = system: Escherichia coli NIHJ JC-2; assay: as above; type: cell-based
Excerpt: as §3, §4

Proteus species C73-25 = assay: as above; type: cell-based; conditions: read-out: Minimum prohibiting concentration
Excerpt: as §3, §4

[9] = system: Pseudomonas species C73-83; assay: as above; type: cell-based
Excerpt: as §3, §4

[10] = system: Staphylococcus aureus 209p JC-1; assay: as above; type: cell-based; conditions: read-out: Minimum prohibiting concentration
Excerpt: as §3, §4

[11] = system: Pseudomonas species C73-2; assay: as above; type: cell-based; conditions: C732, Table 1
Excerpt: as §3, §4

[12] = system: Staphylococcus aureus No. 26; assay: as above; type: cell-based
Excerpt: as §3, §4

Proteus species C73-34 = assay: as above; type: cell-based; conditions: read-out: Minimum prohibiting concentration
Excerpt: as §3, §4

[13] = system: Escherichia coli K-12 IAM 1264; assay: as above; type: cell-based; conditions: IAM1264, Table 1
Excerpt: as §3, §4

Serratia species MS-2 = assay: as above; type: cell-based
Excerpt: as §3, §4

[14] = system: Enterobacter species C73-17; assay: as above; type: cell-based
Excerpt: as §3, §4

[15] = Toxicity, peritoneal administration to mice; type: in vivo; conditions: 6 mice, administered peritoneally, dosage amount of 200 mg/l kg
Excerpt: The toxicity of the compounds according to this invention is excellently low. […] As is clear from above, the compounds according to this invention are not only low in toxicity and excellent in anti-biotic activity but also have a prolonged action after administration. Therefore, they show excellent infection cure effect and infection-defense effect in before-or after-administration and in less dosage in comparison with known cephalosporin derivatives, for example, cephalothin, cefazolin or cephaloridine.

[16] = Table 2, agar plate dilution method, Staphylococcus aureus Smith No. 26
[17] = Table 2, agar plate dilution method, Salmonella enteritidis N0. 11, read-out: Minimum inhibition concentration
[18] = Table 2, agar plate dilution method, Proteus morganii Kono, read-out: Minimum inhibition concentration
[19] = read-out: Minimum inhibition concentration
[20] = K5, Table 2, agar plate dilution method, Vibrio parahaemolyticus K-5, read-out: Minimum inhibition concentration
[21] = Escherichia coli, NIHJJC2, read-out: Minimum prohibiting concentration
[22] = Staphylococcus aureus, NO.26, read-out: Minimum prohibiting concentration
[23] = Serratia, MS2, read-out: Minimum prohibiting concentration
[24] = Salmonella, NO.11, read-out: Minimum prohibiting concentration
[25] = read-out: Minimum prohibiting concentration
[26] = Table 1, agar plate dilution method, Serratia species No. 2, read-out: Minimum prohibiting concentration
[27] = ATCC6633, Table 1, agar plate dilution method, Bacillus subtilis ATCC 6633, read-out: Minimum prohibiting concentration
[28] = K7, Table 1, agar plate dilution method, Vibrio parahaemolyticus K-7, read-out: Minimum prohibiting concentration
[29] = IAM1007, Table 1, agar plate dilution method, Pseudomonas aeruginosa IAM 1007, read-out: Minimum prohibiting concentration
[30] = C731, Table 1, agar plate dilution method, Escherichia coli C73-1, read-out: Minimum prohibiting concentration
[31] = Table 1, agar plate dilution method, Proteus species C73-25
[32] = C7383, Table 1, agar plate dilution method, Pseudomonas species C73-83, read-out: Minimum prohibiting concentration
[33] = Table 1, agar plate dilution method, Staphylococcus aureus 209p JC-1
[34] = Table 1, agar plate dilution method, Staphylococcus aureus No. 26, read-out: Minimum prohibiting concentration
[35] = Table 1, agar plate dilution method, Proteus species C73-34
[36] = C7317, Table 1, agar plate dilution method, Enterobacter species C73-17, read-out: Minimum prohibiting concentration
[37] = Table 1, agar plate dilution method, Salmonella enteriditis No. 11, read-out: Minimum prohibiting concentration
[38] = K5, Table 1, agar plate dilution method, Vibrio parahaemolyticus K-5, read-out: Minimum prohibiting concentration
[39] = SMITHS424, Table 1, agar plate dilution method, Staphylococcus aureus Smith S-424, read-out: Minimum prohibiting concentration
[40] = NIHJJC2, Table 1, agar plate dilution method, Escherichia coli NIHJ JC-2, read-out: Minimum prohibiting concentration
[41] = MS2, Table 1, agar plate dilution method, Serratia species MS-2, read-out: Minimum prohibiting concentration
[42] = Table 1, agar plate dilution method, Proteus morganii Kono, read-out: Minimum prohibiting concentration

| Structure (SMILES) | MIC [1, 16] [µg/mL] | MIC (Klebsiella pneumoniae) [µg/mL] | MIC [2, 17] [µg/mL] | MIC (Proteus morganii Kono; [18]) [µg/mL] | MIC (Salmonella typhi O-901-W; [19]) [µg/mL] | MIC [3, 20] [µg/mL] | MIC [11] [µg/mL] | MIC [13] [µg/mL] | MIC (Salmonella typhi O-901-W; [25]) [µg/mL] | MIC (Serratia species No. 2; [26]) [µg/mL] | MIC [5, 27] [µg/mL] | MIC [6, 28] [µg/mL] | MIC [7, 29] [µg/mL] | MIC (Escherichia coli C73-1; [30]) [µg/mL] | MIC [9, 32] [µg/mL] | MIC [10, 33] [µg/mL] | MIC (Proteus species C73-34; [35]) [µg/mL] | MIC [14, 36] [µg/mL] | MIC [3, 38] [µg/mL] | MIC [4, 39] [µg/mL] | also measured |
| --- | --- | --- | --- | --- | --- | --- | --- | --- | --- | --- | --- | --- | --- | --- | --- | --- | --- | --- | --- | --- | --- |
| Cc1ccc(-c2ccc(C(=O)N[C@@H](C(=O)NC3C(=O)N4C(C(=O)O)=C(CSc5nnnn5C)CS[C@H]34)c3ccccc3)c(O)n2)cc1 (stereo partly drawn) [Example 57, 7-{D-(-)-α-[2-hydroxy-6-(p-tolyl)pyridine-3-carbonylamino]-phenylacetamido}-3-(1-methyl-1,2,3,4-tetrazole-5-ylthiomethyl)-3-cephem-4-carboxylicacid] | 50 (≈ 74.3 µM) | 50 (≈ 74.3 µM) | 3.13 (≈ 4.65 µM) | 100 (≈ 149 µM) | 6.25 (≈ 9.29 µM) | 25 (≈ 37.2 µM) | – | – | – | – | – | – | – | – | – | – | – | – | – | – | MIC ([4]; SMITHS424, Table 2, agar plate dilution method, Staphylococcus aureus Smith S-424, read-out: Minimum inhibition concentration): 12.5 µg/mL (≈ 18.6 µM) |
| Cc1ccc(-c2ccc(C(=O)N[C@@H](C(=O)NC3C(=O)N4C(C(=O)[O-])=C(CSc5nnc(C(N)=O)s5)CS[C@H]34)c3ccc(O)cc3)c(O)n2)cc1.[Na+] (stereo partly drawn) [Example 8, sodium 7-{D(-)-α-[2-hydroxy-6-(p-tolyl)pyridine-3-carbonylamino]-p-hydroxyphenylacetamido}-3-(5-carbamoyl-1,3,4-thiadiazol-2-ylthiomethyl)-3-cephem-4-carboxylate] | – | – | – | – | – | – | 50 | 1.56 | 1.56 | – | – | – | – | – | – | – | – | – | – | – | MIC (Serratia species No. 2; Serratia, NO.2, read-out: Minimum prohibiting concentration): 50 µg/mL; MIC ([5]; Bacillus subtilis, ATCC6633, read-out: Minimum prohibiting concentration): 0.78 µg/mL; MIC ([6]; Vibrio parahaemolyticus, K7, read-out: Minimum prohibiting concentration): 3.13 µg/mL; MIC ([7]; Pseudomonas aeruginosa, IAM1007, read-out: Minimum prohibiting concentration): 100 µg/mL; MIC (Escherichia coli C73-1; Escherichia coli, C731, read-out: Minimum prohibiting concentration): 6.25 µg/mL; MIC [8, 21]: 12.5 µg/mL; MIC (Proteus species C73-25): 50 µg/mL; MIC ([9]; Pseudomonas, C7383, read-out: Minimum prohibiting concentration): 100 µg/mL; MIC ([10]; Staphylococcus aureus, 209P): 0.2 µg/mL; MIC [12, 22]: 3.13 µg/mL; MIC (Proteus species C73-34): 12.5 µg/mL; MIC (Serratia species MS-2; [23]): 50 µg/mL; MIC ([14]; Enterobacter, C7317, read-out: Minimum prohibiting concentration): 12.5 µg/mL; MIC [2, 24]: 0.78 µg/mL; MIC (Proteus morganii Kono; [25]): 25 µg/mL; MIC ([3]; Vibrio parahaemolyticus, K5, read-out: Minimum prohibiting concentration): 3.13 µg/mL; MIC ([4]; Staphylococcus aureus, SMITHS424, read-out: Minimum prohibiting concentration): 0.39 µg/mL |
| CC1(C)S[C@@H]2[C@H](NC(=O)C(C(=O)O)c3ccccc3)C(=O)N2[C@H]1C(=O)O (some centres unmarked) [Carbenicillin disodium, reference compound] | 25 | 25 | 50 | – | 12.5 | > 100 | > 100 | 12.5 | 12.5 | 50 | 0.39 | 50 | > 100 | 25 | > 100 | 0.39 | 50 | > 100 | > 100 | 0.39 | MIC [8, 21]: 12.5 µg/mL; MIC (Proteus species C73-25; [31]): 50 µg/mL; MIC [12, 34]: 25 µg/mL; MIC (Serratia species MS-2; [23]): 12.5 µg/mL; MIC [2, 37]: 50 µg/mL; MIC (Proteus morganii Kono; [19]): 12.5 µg/mL; MIC (Proteus morganii Kono; [25]): 12.5 µg/mL |
| Cc1ccc(-c2ccc(C(=O)N[C@@H](C(=O)NC3C(=O)N4C(C(=O)O)=C(CSc5nnnn5C)CS[C@H]34)c3ccc(O)cc3)c(O)n2)cc1 (stereo partly drawn) [Example 56, 7-{D-(-)-α-[2-hydroxy-6-(p-tolyl)pyridine-3-carbonylamino]-p-hydroxyphenylacetamido}-3-(1-methyl-1,2,3,4-tetrazole-5-ylthiomethyl)-3-cephem-4-carboxylic acid] | – | 25 (≈ 36.3 µM) | – | 12.5 (≈ 18.1 µM) | 1.56 (≈ 2.26 µM) | 25 (≈ 36.3 µM) | – | – | – | – | – | – | – | – | – | – | – | – | – | – | MIC ([1]; Staphylococcus aureus): 6.25 µg/mL (≈ 9.07 µM); MIC [2, 19]: 1.56 µg/mL (≈ 2.26 µM); MIC ([4]; Staphylococcus aureus, SMITHS424, read-out: Minimum inhibition concentration): 1.56 µg/mL (≈ 2.26 µM) |
| Cc1nnc(SCC2=C(C(=O)O)N3C(=O)[C@@H](NC(=O)Cn4cnnn4)[C@H]3SC2)s1 [Cefazolin Na, reference compound] | – | – | – | – | – | – | > 100 | 3.13 (≈ 6.89 µM) | 3.13 (≈ 6.89 µM) | > 100 | 0.2 (≈ 0.44 µM) | 12.5 (≈ 27.5 µM) | > 100 | 6.25 (≈ 13.8 µM) | > 100 | 0.1 (≈ 0.22 µM) | 12.5 (≈ 27.5 µM) | 50 (≈ 110 µM) | 6.25 (≈ 13.8 µM) | 0.78 (≈ 1.72 µM) | MIC [8, 40]: 6.25 µg/mL (≈ 13.8 µM); MIC (Proteus species C73-25): 3.13 µg/mL (≈ 6.89 µM); MIC [12, 22]: 3.13 µg/mL (≈ 6.89 µM); MIC (Serratia species MS-2; [41]): > 100 µg/mL; MIC [2, 24]: 3.13 µg/mL (≈ 6.89 µM); MIC (Proteus morganii Kono; [42]): > 100 µg/mL |
| Cc1ccc(-c2ccc(C(=O)N[C@@H](C(=O)NC3C(=O)N4C(C(=O)O)=C(CSc5nnc(C(N)=O)s5)CS[C@H]34)c3ccccc3)c(O)n2)cc1 (stereo partly drawn) [Example 2, 7-{D(-)-α-[2-hydroxy-6-(p-tolyl)pyridine-3-carbonylamino]phenylacetamido}-3-(5-carbamoyl-1,3,4-thiadiazol-2-ylthiomethyl)-3-cephem-4-carboxylic acid] | – | – | – | – | – | – | 100 (≈ 139 µM) | 6.25 (≈ 8.71 µM) | 3.13 (≈ 4.36 µM) | 100 (≈ 139 µM) | 1.56 (≈ 2.17 µM) | 12.5 (≈ 17.4 µM) | 100 (≈ 139 µM) | 25 (≈ 34.8 µM) | 100 (≈ 139 µM) | 0.78 (≈ 1.09 µM) | 12.5 (≈ 17.4 µM) | 50 (≈ 69.7 µM) | 25 (≈ 34.8 µM) | 0.78 (≈ 1.09 µM) | MIC [8, 40]: 25 µg/mL (≈ 34.8 µM); MIC (Proteus species C73-25; [31]): 25 µg/mL (≈ 34.8 µM); MIC [12, 34]: 6.25 µg/mL (≈ 8.71 µM); MIC (Serratia species MS-2; [41]): 50 µg/mL (≈ 69.7 µM); mortality [15]: any mouse did not die; MIC [2, 37]: 0.39 µg/mL (≈ 0.543 µM); MIC (Proteus morganii Kono; [42]): 100 µg/mL (≈ 139 µM) |

Source: patent US4258184A, “Cephalosporin derivatives” (Meiji Seika Kaisha Ltd., priority 1976, dated 1981)
